Experimental data: the NIST ThermoML archive (doi:10.1016/j.jct.2017.05.001)

Test: wn = mass fraction of the nth substance listed
Settings: Liquid; for mass density: Vibrating tube method; for viscosity: Falling or rolling sphere viscometry

OCCNCCO [diethanolamine] + O
Settings	mass density, w1 = 0.0993 [kg/m3]	mass density, w1 = 0.2 [kg/m3]	mass density, w1 = 0.3002 [kg/m3]	mass density, w1 = 0.3997 [kg/m3]	viscosity, w1 = 0.0993 [mPa·s]	viscosity, w1 = 0.2 [mPa·s]	viscosity, w1 = 0.3002 [mPa·s]	viscosity, w1 = 0.3997 [mPa·s]
353.15 K, 60000 kPa	–	–	1026.4	1036.7	–	–	–	–
353.15 K, 70000 kPa	1010	1019.8	1029.9	1040.2	–	–	–	–
353.15 K, 80000 kPa	1013.7	1023.4	1033.4	1043.6	0.4886	0.6588	0.9309	1.371
353.15 K, 90000 kPa	1017.3	1026.9	1036.8	1047	–	–	–	–
353.15 K, 100000 kPa	1020.9	1030.4	1040.1	1050.4	0.4971	0.6731	0.9514	1.409
353.15 K, 110000 kPa	1024.4	1033.8	1043.5	1053.6	–	–	–	–
353.15 K, 120000 kPa	1027.8	1037.1	1046.8	1056.8	–	–	–	–
353.15 K, 130000 kPa	1031.1	1040.5	1050	1060	–	–	–	–
353.15 K, 140000 kPa	1034.4	1043.6	1053.1	1063	–	–	–	–
373.15 K, 100 kPa	968.1	978.3	988.7	999.2	–	–	–	–
373.15 K, 500 kPa	968.3	978.6	988.9	999.4	–	–	–	–
373.15 K, 1000 kPa	968.6	978.8	989.2	999.6	–	–	–	–
373.15 K, 2000 kPa	969.1	979.3	989.6	1000.1	–	–	–	–
373.15 K, 5000 kPa	970.4	980.6	990.9	1001.4	0.3586	0.4622	0.6145	0.8545
373.15 K, 10000 kPa	972.7	982.8	993.2	1003.6	0.3611	0.4646	0.6194	0.863
373.15 K, 15000 kPa	974.9	985	995.3	1005.7	0.3635	0.467	0.6247	0.8727
373.15 K, 20000 kPa	977.1	987.2	997.4	1007.8	0.3652	0.4698	0.6304	0.8808
373.15 K, 25000 kPa	–	–	–	–	0.3672	0.4729	0.6353	0.889
